Results: patent US12624018B1, “Inhibitors of RIPK2 and medical uses thereof” (Odyssey Therapeutics, Inc., priority 2022, dated 2026)

What was measured:
[1] = molecular target: T1, RIPK2 and XIAP protein-protein interaction (Homo sapiens, UniProt O43353); test: Inhibition of the interaction of RIPK2 with XIAP (NanoBRET in HEK293T cells); format: cell-based; details: RIPK2 HaloTag / XIAP NanoLuc, read-out: NanoBRET Scaffolding IC50
T1 construct: the N-terminus of full-length RIPK2 was appended with the HaloTag fusion protein; expressed in transfected cells; host or cells: HEK293T
Outline: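 HEK293T cells transiently co-transfected with HaloTag-RIPK2 (N-terminal) and XIAP-NanoLuc (C-terminal) full-length fusions, grown 24 h at 37° C. in Opti-MEM with 4% FBS. Compounds tested as 10-point 3-fold dilutions; NanoBRET ratio taken as 618 nm acceptor over 460 nm donor emission.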

human NOD2 signaling = test: Inhibition of human NOD2 signaling in HEK-Blue-hNOD2 cells (L18-MDP stimulated, SEAP reporter); format: cell-based; details: Homo sapiens, HEK-Blue hNOD2, HEK-Blue-hNOD2 cells, NOD2 ligand stimulation, SEAP reporter; read-out: hNOD2 IC50
Outline: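 HEK-Blue-hNOD2 cells (HEK293 with NOD2 and SEAP reporter), 12500/well, treated with 10-point 3-fold compound dilutions plus L18-MDP 0.5 ng/mL final, 24 h at 37 °C. Supernatant SEAP read with QUANTI-Blue after 3 h at 620 nm; IC50 by 4-parameter fit vs DMSO±L18-MDP controls.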

T1 sequence (O43353 whole entry, the tested form may be a part): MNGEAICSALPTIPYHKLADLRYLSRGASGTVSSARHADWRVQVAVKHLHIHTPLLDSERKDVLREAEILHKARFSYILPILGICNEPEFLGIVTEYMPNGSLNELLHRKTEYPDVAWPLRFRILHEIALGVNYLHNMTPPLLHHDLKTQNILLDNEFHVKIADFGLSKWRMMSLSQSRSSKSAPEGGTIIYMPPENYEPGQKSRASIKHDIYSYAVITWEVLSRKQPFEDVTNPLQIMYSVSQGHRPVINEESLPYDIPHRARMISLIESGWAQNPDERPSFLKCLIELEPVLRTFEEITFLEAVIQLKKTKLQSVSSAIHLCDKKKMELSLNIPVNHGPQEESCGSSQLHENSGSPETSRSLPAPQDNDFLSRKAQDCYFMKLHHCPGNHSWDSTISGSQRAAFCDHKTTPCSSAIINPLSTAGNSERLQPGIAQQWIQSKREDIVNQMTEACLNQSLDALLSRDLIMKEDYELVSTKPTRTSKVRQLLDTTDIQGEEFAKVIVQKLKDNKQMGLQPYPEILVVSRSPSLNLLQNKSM

Compound | IC50 [1] [nM] | IC50 (human NOD2 signaling) [nM]
CCS(=O)(=O)c1ccc2nccc(Oc3ccc(CC(=O)Nc4cnn(C(C)(C)C)c4)cc3C)c2c1 [Compound 99, N-(1-(tert-butyl)-1H-pyrazol-4-yl)-2-(4-((6-(ethylsulfonyl)quinolin-4-yl)oxy)-3-methylphenyl)acetamide] | 15 | 0.3
Cc1cc(CC(=O)Nc2cnn(C(C)(C)C)c2)ccc1Oc1ccnc2ccc(OC3CCNCC3)cc12 [Compound 83, N-(1-(tert-butyl)-1H-pyrazol-4-yl)-2-(3-methyl-4-((6-(piperidin-4-yloxy)quinolin-4-yl)oxy)phenyl) acetamide] | 29 | 5.9
CC(C)(C)n1cc(NC(=O)Cc2ccc(Oc3ccnc4ccc(S(C)(=O)=O)cc34)cc2F)cn1 [Compound 38, N-(1-(tert-butyl)-1H-pyrazol-4-yl)-2-(2-fluoro-4-((6-(methylsulfonyl)quinolin-4-yl)oxy)phenyl)acetamide] | 54 | 9
Cc1cc(CC(=O)Nc2cnn(C(C)(C)C)c2)ccc1Oc1ccnc2ccc(S(C)(=O)=O)cc12 [Compound 86, N-(1-(tert-butyl)-1H-pyrazol-4-yl)-2-(3-methyl-4-((6-(methylsulfonyl)quinolin-4-yl)oxy)phenyl)acetamide] | 12 | 0.7

The remaining lines, values ahead:

IC50 [1] [nM] | IC50 (human NOD2 signaling) [nM] | Compound
33 | 2.2 | Cc1cc(CC(=O)Nc2cnn(C(C)(C)C)c2)c(F)cc1Oc1ccnc2ccc(S(C)(=O)=O)cc12 [Compound 113, N-(1-(tert-butyl)-1H-pyrazol-4-yl)-2-(2-fluoro-5-methyl-4-((6-(methylsulfonyl)quinolin-4-yl)oxy)phenyl)acetamide]
61.4 | 1.2 | Cc1cc(CC(=O)Nc2cnn(C(C)(C)C)c2)cc(C)c1Oc1ccnc2cc(F)c(C(N)=O)cc12 [Compound 581, 4-(4-(2-((1-(tert-butyl)-1H-pyrazol-4-yl)amino)-2-oxoethyl)-2,6-dimethylphenoxy)-7-fluoroquinoline-6-carboxamide]
12 | 0.5 | Cc1c(Oc2ccnc3ccc(S(C)(=O)=O)cc23)ccc(CC(=O)Nc2cnn(C(C)(C)C)c2)c1F [Compound 91, N-(1-(tert-butyl)-1H-pyrazol-4-yl)-2-(2-fluoro-3-methyl-4-((6-(methylsulfonyl)quinolin-4-yl)oxy)phenyl)acetamide]
8 | 0.2 | CNC(=O)c1ccc2nccc(Oc3cc(F)c(CC(=O)Nc4cnn(C(C)(C)C)c4)cc3C)c2c1 [Compound 360, 4-(4-(2-((1-(tert-butyl)-1H-pyrazol-4-yl)amino)-2-oxoethyl)-5-fluoro-2-methylphenoxy)-N-methylquinoline-6-carboxamide]
14 | 0.5 | Cc1cc(CC(=O)Nc2cnn(C(C)(C)C)c2)c(F)cc1Oc1ccnc2ccc(C(N)=O)cc12 [Compound 359, 4-(4-(2-((1-(tert-butyl)-1H-pyrazol-4-yl)amino)-2-oxoethyl)-5-fluoro-2-methyl-phenoxy) quinoline-6-carboxamide]
